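In this assay, cells in 96-well plates receive the compound at five concentrations for 48 hours. Endpoints are linearly interpolated between the surrounding concentrations. Abbreviation: GI50, concentration required for 50% inhibition of growth.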 Calls of active or inactive are those of the source. Cut-off read from the data, not from the text of the source: active = GI50 up to about 1.1 µM and inactive = higher.
Tests used:
Experiment in all cases: growth of human tumour cells (NCI), 48 h
HCT-15 = test system: HCT-15
U-251 = test system: U-251
CCRF-CEM = test system: CCRF-CEM
HCT-116 = test system: HCT-116
UACC-257 = test system: UACC-257
DU-145 = test system: DU-145
SN12C = test system: SN12C
NCI-H23 = test system: NCI-H23
Malme-3M = test system: Malme-3M
NCI-H522 = test system: NCI-H522
M14 = test system: M14
A498 = test system: A498
SW-620 = test system: SW-620
MDA-MB-231 = test system: MDA-MB-231
T47D = test system: T47D
A549 = test system: A549
HOP-92 = test system: HOP-92
MOLT-4 = test system: MOLT-4
SF-539 = test system: SF-539
SR = test system: SR

SMILES	GI50 (HCT-15)	GI50 (U-251)	GI50 (CCRF-CEM)	GI50 (HCT-116)	GI50 (UACC-257)	GI50 (DU-145)	GI50 (SN12C)	GI50 (NCI-H23)	GI50 (Malme-3M)	GI50 (NCI-H522)	GI50 (M14)	GI50 (A498)	GI50 (SW-620)	GI50 (MDA-MB-231)	GI50 (T47D)	GI50 (A549)	GI50 (HOP-92)	GI50 (MOLT-4)	GI50 (SF-539)	GI50 (SR)
O=C(O)c1ccc(N2C=[N+]3C(=Nc4ccccc43)C2)cc1	> 100 µM	> 100 µM (inactive)	> 100 µM (inactive)	> 100 µM (inactive)	> 100 µM (inactive)	> 100 µM (inactive)	> 100 µM (inactive)	> 100 µM (inactive)	0.475 µM (active)	> 100 µM (inactive)	> 100 µM (inactive)	> 100 µM (inactive)	> 100 µM (inactive)	> 100 µM (inactive)	> 100 µM (inactive)	> 100 µM (inactive)				
N#Cc1cc(C#N)c(Cl)nc1N	> 10 µM	> 10 µM (inactive)	> 10 µM (inactive)	> 10 µM (inactive)			> 10 µM (inactive)	> 10 µM (inactive)	> 10 µM (inactive)				> 10 µM (inactive)		> 10 µM (inactive)	> 10 µM (inactive)	> 10 µM (inactive)	> 10 µM (inactive)	> 10 µM (inactive)	> 10 µM (inactive)
Cn1c(COC(=O)NC2CCCCC2)c(COC(=O)NC2CCCCC2)c2ccc3cc(C=O)ccc3c21	> 100 µM	27.9 µM (inactive)	> 100 µM (inactive)	> 100 µM (inactive)	> 100 µM (inactive)	> 100 µM (inactive)	> 100 µM (inactive)	> 100 µM (inactive)	> 100 µM (inactive)		> 100 µM (inactive)	> 100 µM (inactive)	> 100 µM (inactive)	85.1 µM (inactive)	> 100 µM (inactive)	> 100 µM (inactive)	32 µM (inactive)	> 100 µM (inactive)	> 100 µM (inactive)	
CN(C)CCNc1ncnc2nc(-c3ccccc3)c(-c3ccccc3)nc12		> 100 µM (inactive)	> 100 µM (inactive)	> 100 µM (inactive)	> 100 µM (inactive)	> 100 µM (inactive)	> 100 µM (inactive)	> 100 µM (inactive)	> 100 µM (inactive)	> 100 µM (inactive)	> 100 µM (inactive)	> 100 µM (inactive)	> 100 µM (inactive)	> 100 µM (inactive)	> 100 µM (inactive)	> 100 µM (inactive)		0.094 µM (active)	> 100 µM (inactive)	
Cc1ccc2nc(NC(=O)C(=O)C3C(=O)NC(=S)NC3=O)sc2c1	> 100 µM	> 100 µM (inactive)	> 100 µM (inactive)	> 100 µM (inactive)	> 100 µM (inactive)		> 100 µM (inactive)	> 100 µM (inactive)	55.6 µM (inactive)	78 µM (inactive)	> 100 µM (inactive)	> 100 µM (inactive)	> 100 µM (inactive)	> 100 µM (inactive)	> 100 µM (inactive)	> 100 µM (inactive)	> 100 µM (inactive)	> 100 µM (inactive)	> 100 µM (inactive)	> 10 µM (inactive)
N#C/C(C(=O)Nc1ccc(Cl)cc1)=C(/N)N1CCCCC1	> 100 µM	56.5 µM (inactive)	> 100 µM (inactive)	99.5 µM (inactive)	> 100 µM (inactive)	> 100 µM (inactive)	> 100 µM (inactive)	64.4 µM (inactive)			85.1 µM (inactive)	> 100 µM (inactive)	> 100 µM (inactive)		> 100 µM (inactive)	> 100 µM (inactive)	> 100 µM (inactive)	> 100 µM (inactive)	75.7 µM (inactive)	> 100 µM (inactive)
N#Cc1c(-c2ccc([N+](=O)[O-])cc2)c(C#N)c(=O)n(NS(=O)(=O)c2ccccc2)c1S	36.9 µM	41.3 µM (inactive)	16 µM (inactive)	19.4 µM (inactive)	99.8 µM (inactive)		17.4 µM (inactive)		48.1 µM (inactive)	21.2 µM (inactive)	37 µM (inactive)	74.6 µM (inactive)	22.1 µM (inactive)	21.3 µM (inactive)		39.9 µM (inactive)	> 100 µM (inactive)	17.5 µM (inactive)	20 µM (inactive)	

— ChEMBL document CHEMBL1201862, “PubChem BioAssay data set” (2004)
